According to patent US8691815B2, “Substituted oxindole derivatives, drugs containing said derivatives and the use thereof” (AbbVie Deutschland GmbH & Co. KG, priority 2005, dated 2014):
Counter-ions that a name gives are not always drawn.

Target: T1, human vasopressin V1b receptor (Homo sapiens, UniProt P47901)
T1 construct: expressed in transfected cells; host or cells: CHO-K1 (cell line hV1b-3H2_CHO), membrane preparation
T1 sequence (P47901 1-424): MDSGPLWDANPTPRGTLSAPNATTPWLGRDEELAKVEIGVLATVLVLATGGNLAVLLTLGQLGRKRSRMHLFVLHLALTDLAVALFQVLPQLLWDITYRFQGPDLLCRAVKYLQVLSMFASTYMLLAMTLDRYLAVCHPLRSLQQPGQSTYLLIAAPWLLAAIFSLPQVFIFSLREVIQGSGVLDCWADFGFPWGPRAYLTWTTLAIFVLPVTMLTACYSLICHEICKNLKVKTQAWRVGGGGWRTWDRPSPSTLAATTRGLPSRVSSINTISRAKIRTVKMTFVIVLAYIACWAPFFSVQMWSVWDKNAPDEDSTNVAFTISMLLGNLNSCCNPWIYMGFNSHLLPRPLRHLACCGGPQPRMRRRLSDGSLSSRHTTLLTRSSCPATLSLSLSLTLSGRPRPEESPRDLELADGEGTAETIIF
Assay: Vasopressin V1b receptor binding assay
Details: membranes from CHO-K1 cells with stably expressed human V1b receptors, displacement of 1.5 nM 3H-AVP
Protocol: Vasopressin V1b Receptor Binding Assay:
The test substances were dissolved in a concentration of 10^−2 M in DMSO (dimethyl sulfoxide) and further diluted to 5×10^−4 M to 5×10^−9 M in DMSO. This series of DMSO predilutions was diluted 1:10 with assay buffer. The substance concentration was again diluted 1:5 in the assay mixture (2% DMSO in the mixture).
The membrane pellet was again homogenized and centrifuged as described and then taken up in 50 mM Tris-HCl, pH 7.4, homogenized and stored in aliquots frozen in liquid nitrogen at −190° C.
The incubation buffer was: 50 mM Tris, 10 mM MgCl2, 0.1% BSA, pH 7.4.
The nonspecific binding was determined with 1 uM AVP (Bachem # H1780). All determinations were carried out as triplicate determinations. After incubation (60 minutes at room temperature), the free radioligand was removed by vacuum filtration (Skatron cell harvester 7000) through Whatman GF/B glass fiber filter mats, and the filters were transferred into scintillation vials. The liquid scintillation measurement took place in a Tricarb model 2000 or 2200CA instrument (Packard). Conversion of the measured cpm into dpm was carried out with the aid of a standard quench series.
The binding parameters were calculated by nonlinear regression in SAS.

Question: With `COc1ccc(S(=O)(=O)N2C(=O)C(c3ccc(CN4CCC4)cc3OC)(N3CCC[C@H]3C(=O)N(C)C)c3cc(Cl)ccc32)cc1` (stereo partly drawn) [Example 87, (S)-1-[3-(4-Azetidin-1-ylmethyl-2-methoxyphenyl)-5-chloro-1-(4-methoxybenzene-sulfonyl)-2-oxo-2,3-dihydro-1H-indol-3-yl]pyrrolidine-2-dimethylcarboxamide, trifluoroacetic acid salt] as the compound, how does the Ki read?
Answer: < 1 nM

Question: With `COc1ccc(S(=O)(=O)N2C(=O)C(c3ccc(CN4CCCCC4)cc3OC)(N3CCC[C@H]3C(=O)N(C)C)c3cc(Cl)ccc32)cc1` (stereo partly drawn) [Example 83, (S)-1-[5-Chloro-1-(4-methoxybenzenesulfonyl)-3-(2-methoxy-4-piperidin-1-ylmethyl-phenyl)-2-oxo-2,3-dihydro-1H-indol-3-yl]pyrrolidine-2-dimethylcarboxamide, trifluoroacetic acid salt] as the compound, how does the Ki read?
Answer: < 1 nM

Question: Which Ki does the source give for `COc1ccc(S(=O)(=O)N2C(=O)C(c3ccc(CN(C)C)cc3OC)(N3CCC[C@H]3C(=O)N(C)C)c3cc(Cl)ccc32)cc1` (stereo partly drawn) [Example 70, (S)-1-[5-Chloro-3-(4-dimethylaminomethyl-2-methoxyphenyl)-1-(4-methoxy-benzenesulfonyl)-2-oxo-2,3-dihydro-1H-indol-3-yl]pyrrolidine-2-dimethylcarboxamide, trifluoroacetic acid salt] here?
Answer: < 1 nM

Question: Which Ki does the source give for `COc1cc(CN2CCNCC2)ccc1C1(N2CCC[C@H]2C(=O)N(C)C)C(=O)N(S(=O)(=O)c2ccc(C#N)cc2)c2ccc(Cl)cc21` (stereo partly drawn) [Example 82, (S)-1-[5-Chloro-1-(4-cyanobenzenesulfonyl)-3-(2-methoxy-4-piperazin-1-ylmethyl-phenyl)-2-oxo-2,3-dihydro-1H-indol-3-yl]pyrrolidine-2-dimethylcarboxamide, trifluoroacetic acid salt] here?
Answer: < 1 nM

Question: How did the Ki turn out when “(S)-2-{[5-Chloro-1-(2,4-dimethoxybenzenesulfonyl)-3-(4-dimethylaminomethyl-2-methoxyphenyl)-2-oxo-2,3-dihydro-1H-indol-3-yl]methylamino}-N,N-dimethyl-propionamide [Example 13]” was run?
Answer: 1 to 10 nM

Question: How did the Ki turn out when `COc1cc(CN2CCCC2)ccc1C1(N2CCC[C@H]2C(=O)N(C)C)C(=O)N(S(=O)(=O)c2ccc(Cl)cc2)c2ccc(Cl)cc21` (stereo partly drawn) [Example 4, (S)-1-[5-Chloro-1-(4-chlorobenzenesulfonyl)-3-(2-methoxy-4-pyrrolidin-1-ylmethyl-phenyl)-2-oxo-2,3-dihydro-1H-indol-3-yl]pyrrolidine-2-dimethylcarboxamide, trifluoroacetic acid salt] was run?
Answer: < 1 nM

Question: With `COCCN(C)Cc1ccc(OC)c(C2(N3CCC[C@H]3C(=O)N(C)C)C(=O)N(S(=O)(=O)c3ccc(OC)cc3)c3ccc(Cl)cc32)c1` (stereo partly drawn) [Example 32, (S)-1-[5-Chloro-1-(4-methoxybenzenesulfonyl)-3-(2-methoxy-5-{[(2-methoxyethyl)-methylamino]methyl}phenyl)-2-oxo-2,3-dihydro-1H-indol-3-yl]-pyrrolidine-2-dimethyl-carboxamide, trifluoroacetic acid salt] as the compound, how does the Ki read?
Answer: < 1 nM

Question: For `COc1ccc(S(=O)(=O)N2C(=O)C(c3cc(CN4CCOCC4)ccc3OC)(N3CCC[C@H]3C(=O)N(C)C)c3cc(Cl)ccc32)c(OC)c1` (stereo partly drawn) [Example 28, (S)-1-[5-Chloro-1-(2,4-dimethoxybenzenesulfonyl)-3-(2-methoxy-5-morpholin-4-yl-methylphenyl)-2-oxo-2,3-dihydro-1H-indol-3-yl]pyrrolidine-2-dimethylcarboxamide, trifluoroacetic acid salt], which Ki is on record?
Answer: 1 to 10 nM

Question: `COc1ccc(S(=O)(=O)N2C(=O)C(c3ccc(CN4CCOCC4)cc3OC)(N3CCC[C@H]3C(=O)N(C)C)c3cc(Cl)ccc32)cc1` (stereo partly drawn) [Example 71, (S)-1-[5-Chloro-1-(4-methoxybenzenesulfonyl)-3-(2-methoxy-4-morpholin-4-yl-methylphenyl)-2-oxo-2,3-dihydro-1H-indol-3-yl]pyrrolidine-2-dimethylcarboxamide, trifluoroacetic acid salt] was tested. Which Ki did it give?
Answer: < 1 nM
